Measured values taken from US11377442B2, “Small molecule agonists and antagonists of NR2F6 activity” (ZANDER THERAPEUTICS, INC., priority 2016, dated 2022).
Where two headings read alike, the source gives them in different places.

Assays:
Type in all cases: cell-based
NR2F6 = target: T1, NR2F6 (Homo sapiens, UniProt P10588); test: NR2F6 agonist screening, Firefly signal cmpd/DMSO
T1 construct: expressed in transfected cells; also transient transfection
T1 sequence (P10588 1-404): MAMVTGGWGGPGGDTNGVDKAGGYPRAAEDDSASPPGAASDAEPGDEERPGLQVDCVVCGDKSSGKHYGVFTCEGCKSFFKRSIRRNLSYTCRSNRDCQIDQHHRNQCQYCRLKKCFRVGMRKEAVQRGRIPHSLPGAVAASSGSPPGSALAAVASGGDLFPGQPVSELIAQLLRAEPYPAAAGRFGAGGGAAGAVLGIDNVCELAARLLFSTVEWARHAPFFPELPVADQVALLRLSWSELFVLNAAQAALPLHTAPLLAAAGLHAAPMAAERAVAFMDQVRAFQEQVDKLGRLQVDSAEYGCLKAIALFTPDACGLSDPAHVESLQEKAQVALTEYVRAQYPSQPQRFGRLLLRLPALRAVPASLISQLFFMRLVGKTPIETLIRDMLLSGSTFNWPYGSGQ

ERα [1] = target: T2, ERα (Homo sapiens, UniProt P03372); test: Counterscreening, Firefly signal with ERα transient transfection (Firefly_ERa)
T2 construct: expressed in transfected cells
T2 sequence (P03372 1-595): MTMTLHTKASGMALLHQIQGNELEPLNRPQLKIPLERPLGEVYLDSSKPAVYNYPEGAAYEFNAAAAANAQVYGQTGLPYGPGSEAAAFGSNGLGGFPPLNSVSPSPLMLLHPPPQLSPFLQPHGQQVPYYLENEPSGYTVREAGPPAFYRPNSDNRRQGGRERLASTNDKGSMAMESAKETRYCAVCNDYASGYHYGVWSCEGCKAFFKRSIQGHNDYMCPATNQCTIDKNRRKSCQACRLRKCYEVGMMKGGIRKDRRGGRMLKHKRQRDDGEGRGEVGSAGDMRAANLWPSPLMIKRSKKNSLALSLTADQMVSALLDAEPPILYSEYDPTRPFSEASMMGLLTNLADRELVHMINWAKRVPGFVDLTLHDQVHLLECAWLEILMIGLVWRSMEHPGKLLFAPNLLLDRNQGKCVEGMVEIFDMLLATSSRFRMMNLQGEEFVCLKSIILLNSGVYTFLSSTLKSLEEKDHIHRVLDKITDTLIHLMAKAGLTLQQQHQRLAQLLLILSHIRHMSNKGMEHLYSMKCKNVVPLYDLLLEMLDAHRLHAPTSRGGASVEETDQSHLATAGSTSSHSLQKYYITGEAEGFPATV

ERα [2] = target: T2, ERα; test: as above; settings: 10 uM
Procedure: The methodology for screening candidate compounds as NR2F6 agonists was as follows: For primary screening, hit criteria was ACT %>DMSO control+5*SD (DSO control) at 10 μM, or any compound with S/B>2. For rescreening, hit criteria was ACT %>DMSO control+3*SD (DSO control) in each replicate at 10 μM. For counterscreening, hit criteria was mean ACT<DMSO control+3*SD (DMSO control) with ERα transient transfection in duplicate at 10 μM.

Renilla = Renilla signal in NR2F6 agonist screening, cmpd/DMSO; settings: for fold induction at 2 µM / fold induction at 10 µM / fold induction at 40 µM: Renilla, read-out: Renilla F4, cmpd/DMSO (mean)
Renilla_ERa = test: Renilla signal in ERα counterscreen (Renilla_ERa); settings: for fold induction at 2 µM / fold induction at 10 µM / fold induction at 40 µM: read-out: Renilla ERalpha transient, cmpd/DMSO (mean)

Row | Structure (SMILES) | Firefly F4, cmpd/DMSO (mean) (NR2F6; Table 15, 2 uM) | Firefly F4, cmpd/DMSO (mean) (NR2F6; Table 15, 10 uM) | Firefly F4, cmpd/DMSO (mean) (NR2F6; Table 15, 40 uM) | Firefly ERalpha transient, cmpd/DMSO (mean) (ERα [1]; Table 15, 2 uM) | Firefly ERalpha transient, cmpd/DMSO (mean) (ERα [1]; Table 15, 40 uM) | Firefly ERalpha transient, cmpd/DMSO (mean) (ERα [2]; Table 15) | Firefly F4, cmpd/DMSO (mean) (NR2F6; 2 uM, clone F4) | Firefly F4, cmpd/DMSO (mean) (NR2F6; 10 uM, clone F4) | Firefly F4, cmpd/DMSO (mean) (NR2F6; 40 uM, clone F4) | Firefly ERalpha transient, cmpd/DMSO (mean) (ERα [1]; 2 uM) | Firefly ERalpha transient, cmpd/DMSO (mean) (ERα [1]; 40 uM) | Firefly ERalpha transient, cmpd/DMSO (mean) (ERα [2]) | fold induction at 2 µM (Renilla; 2 uM, clone F4) | fold induction at 10 µM (Renilla; 10 uM, clone F4) | fold induction at 40 µM (Renilla; 40 uM, clone F4) | fold induction at 2 µM (Renilla_ERa; 2 uM) | fold induction at 10 µM (Renilla_ERa; 10 uM) | fold induction at 40 µM (Renilla_ERa; 40 uM) | also measured
1 | CS(=O)(=O)Nc1ccc([N+](=O)[O-])c2nonc12 [Compound Z13] | 1.0 | 0.9 | 1.6 | 1.2 | 1.1 | 1.7 | – | – | – | – | – | – | – | – | – | – | – | – | Renilla F4, cmpd/DMSO (mean) (Renilla; Table 15, 2 uM): 0.8; Renilla F4, cmpd/DMSO (mean) (Renilla; Table 15, 10 uM): 0.7; Renilla F4, cmpd/DMSO (mean) (Renilla; Table 15, 40 uM): 0.4; Renilla ERalpha transient, cmpd/DMSO (mean) (Renilla_ERa; Table 15, 2 uM): 0.8; Renilla ERalpha transient, cmpd/DMSO (mean) (Renilla_ERa; Table 15, 10 uM): 0.6; Renilla ERalpha transient, cmpd/DMSO (mean) (Renilla_ERa; Table 15, 40 uM): 0.4
2 | CC(=O)Nc1ccc(Br)c2nonc12 [Compound Z14] | 1.2 | 0.8 | 1.2 | 1.0 | 1.0 | 1.2 | – | – | – | – | – | – | – | – | – | – | – | – | fold induction at 2 µM (Renilla; Table 15, 2 uM): 0.8; fold induction at 10 µM (Renilla; Table 15, 10 uM): 0.9; fold induction at 40 µM (Renilla; Table 15, 40 uM): 1; fold induction at 2 µM (Renilla_ERa; Table 15, 2 uM): 1.1; fold induction at 10 µM (Renilla_ERa; Table 15, 10 uM): 1.1; fold induction at 40 µM (Renilla_ERa; Table 15, 40 uM): 1
3 | CC(=O)Nc1ccc(NS(C)(=O)=O)c2nonc12 [Compound Z15] | 1.0 | 0.5 | 0.9 | 0.9 | 1.1 | 1.1 | – | – | – | – | – | – | – | – | – | – | – | – | fold induction at 2 µM (Renilla; Table 15, 2 uM): 0.8; fold induction at 10 µM (Renilla; Table 15, 10 uM): 1.1; fold induction at 40 µM (Renilla; Table 15, 40 uM): 1; fold induction at 2 µM (Renilla_ERa; Table 15, 2 uM): 1; fold induction at 10 µM (Renilla_ERa; Table 15, 10 uM): 1; fold induction at 40 µM (Renilla_ERa; Table 15, 40 uM): 0.9
4 | CCOC(=O)c1cnc2c(C)cc(C)cc2c1N1CCCC(N(C)C)C1 (stereo not shown) [Compound Z27] | – | – | – | – | – | – | 1.3 | 1.3 | 0.7 | 1.3 | 0.5 | 2.1 | 1.2 | 1.2 | 0.9 | 1.2 | 1.2 | 0.8 | –
5 | Cc1cc(C)c2ncc(C(=O)O)c(NCCCN(C)C)c2c1 [Compound Z28] | – | – | – | – | – | – | 1.0 | 0.9 | 1.3 | 1.8 | 1.3 | 1.1 | 1 | 1.2 | 1.2 | 1.1 | 1.3 | 1 | –
6 | Cc1cc(C)c2ncc(C(=O)OC(C)C)c(NCCCN(C)C)c2c1 [Compound Z29] | – | – | – | – | – | – | 1.3 | 1.1 | 1.1 | 1.0 | 6.7 | 1.2 | 0.8 | 0.9 | 0.5 | 0.8 | 1.2 | 0.7 | –
7 | CNC(=O)c1cnc2c(C)cc(C)cc2c1NCCCN(C)C [Compound Z30] | – | – | – | – | – | – | 1.4 | 1.1 | 1.2 | 1.4 | 1.4 | 1.1 | 1.1 | 1.1 | 0.7 | 1.1 | 1.1 | 1.6 | –
8 | Cc1cc(C)c2ncc(C(=O)N(C)C)c(NCCCN(C)C)c2c1 [Compound Z31] | – | – | – | – | – | – | 0.8 | 0.9 | 1.1 | 0.9 | 1.3 | 1.6 | 1.1 | 1 | 1 | 1 | 1 | 1 | –
9 | Cc1cc(C)c2ncc(C(=O)N3CCCC3)c(NCCCN(C)C)c2c1 [Compound Z32] | – | – | – | – | – | – | 1.8 | 0.9 | 1.5 | 1.8 | 1.5 | 0.8 | 1 | 1 | 1.3 | 1 | 1.1 | 0.8 | –
10 | CCOC(=O)c1cnc2ccc(C)cc2c1NCCCN(C)C [Compound Z33] | – | – | – | – | – | – | 1.7 | 2.0 | 6.6 | 2.1 | 8.8 | 1.8 | 1.1 | 1 | 0.6 | 1 | 1.5 | 0.9 | activity (in words) (NR2F6; screening result): particularly good activity
